Results published in patent US10174067B2, “Type of cytidine derivative and application thereof” (priority 2014, dated 2019).
Marks after values point to notes of the source that are not given here.

What was measured:
[1] = tested on: HCT-116 colon cancer xenografts; experiment: Tumor growth inhibition of HCT-116 colon cancer xenografts in tumor-bearing nude mice (tumor volume, TGI %, RTV, T/C %); type: in vivo, Balb/c Nude mice; conditions: for T/C % (relative tumor proliferation rate): dosage 400 mg/kg (G10-G16 study);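 as to T/C % (relative tumor proliferation rate): control C is the vehicle-treated model control group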
Method: 4.1 Tumor cells: colon cancer HCT-116 cells, purchased from the Institute of Cell Biology, Chinese Academy of Sciences. The cells were incubated by F-12 medium (containing 10% FBS) in carbon dioxide incubator at 37° C. and in saturated humidity, with 5% CO2 and 95% air in volume fraction. Before inoculation, the cells at logarithmic phase were taken, and digested with 0.25% trypsin, washed once with PBS and resuspended in PBS for counting. The cells were resuspended in serum-free medium and adjusted to about 3×10^7 cell/mL.
The grouping is as follows:
The formations of tumor at the inoculation site of each group of nude mice were observed. The diameter of tumor nodule (D) was measured three times a week with round hole ruler, and the volume of tumor nodule (V) was calculated according to the following formula: […].
Anti-tumor activity was evaluated by tumor growth inhibition rate TGI (%) and relative tumor proliferation rate T/C (%).
The relative tumor volume (RTV) was calculated as: RTV=Vt/V0, where V0 was the tumor volume when they were grouped and administered, and Vt was the tumor volume at the time of measurement.
The relative proliferation rate T/C (%) was calculated as: […].
TRTV: RTV of the treatment group; CRTV: RTV of the control group.
P<0.05 was considered as significant difference.

[2] = Method: To determine the growth inhibition effect and toxicity of the cytidine derivative samples of the present invention on the transplanted tumor of nude mice bearing colon cancer HCT-116.
The corresponding amount of test substance was taken in a 5 mL glass tube and dissolved in ethanol with a 5 mm magnetic stirrer for stirring. After dissolving completely, Cremophor EL was added with continuous stirring. The marked amount of saline was added and mixed evenly before use. The volume ratio of ethanol, Cremophor EL, and physiological saline was 5:5:90.
Varieties and lines; Balb/c Nude mice; level: SPF; sex: female.
4.2 Animal inoculation and grouping: Each nude mouse was inoculated subcutaneously with 0.1 mL of cell suspension (3×10^6 cell/mouse) at right side of hind limb in a sterile stale. When the tumor grew to about 60-150 mm^3, the nude mice with similar tumor volume and desirable shape were selected (it would be better to select single spherical shape, no irregular shape or multiple tumors grouped together) for grouping, 6 mice a group. The grouping is as follows:
The control group, namely the model control group, was injected with a mixture of ethanol, Cremophor EL, and saline (5:5:90).
Those mice were weighed three times a week.
All clinical symptoms of each animal should be recorded at the beginning of the test and during the test. The observations should be made at the same time each day.
An animal would be killed by CO2 when its weight loss was more than 20%, when it was about to die, or when its tumor volume exceeded 2800 mm^3. The tumor was separated and weighed, and the animal was autopsied and observed to evaluate and record whether there were pathological changes in the organs.
The data were expressed as Mean±SEM unless specially provided; Non-pairing T test was performed for the data between the two groups. P<0.05 was considered as significant difference.

[3] = Day 0, G10-G16 groups, single IP 400 mg/kg
[4] = Day 0, G10-G16 groups, single IP 400 mg/kg, Mean±SEM
[5] = Day 1, G10-G16 groups, single IP 400 mg/kg, Mean±SEM
[6] = Day 2, G10-G16 groups, single IP 400 mg/kg, Mean±SEM
[7] = Day 4, G10-G16 groups, single IP 400 mg/kg, Mean±SEM
[8] = Day 7, G10-G16 groups, single IP 400 mg/kg, Mean±SEM
[9] = Day 9, G10-G16 groups, single IP 400 mg/kg, Mean±SEM
[10] = Day 11, G10-G16 groups, single IP 400 mg/kg, Mean±SEM
[11] = Day 14, G10-G16 groups, single IP 400 mg/kg, Mean±SEM
[12] = Day 16, G10-G16 groups, single IP 400 mg/kg, Mean±SEM
[13] = Day 18, G10-G16 groups, single IP 400 mg/kg, Mean±SEM
[14] = Day 21, G10-G16 groups, single IP 400 mg/kg, Mean±SEM
[15] = Day 23, G10-G16 groups, single IP 400 mg/kg, Mean±SEM
[16] = Day 25, G10-G16 groups, single IP 400 mg/kg, Mean±SEM
[17] = Day 28, G10-G16 groups, single IP 400 mg/kg, Mean±SEM
[18] = Day 30, G10-G16 groups, single IP 400 mg/kg, Mean±SEM

## O=C(COc1nc(Cl)c(Cl)cc1Cl)OC[C@H]1O[C@@H](n2cc(Br)c(NC(=O)OCc3ccccc3)nc2=O)C(F)(F)C1O (stereo partly shown) [Compound G10]
[1]; [3]
  Day 0 (RTV): 1.00
[1]; [4]
  Tumor volume, Day 0: 83.23 ± 12.39 mm^3
[1]; Day 0
  T/C % (relative tumor proliferation rate): 0.00%
[1]; Day 1, G10-G16 groups, single IP 400 mg/kg
  Day 1 (TGI %): 50.51%
[1]; [5]
  Day 1 (RTV): 1.06 ± 0.12
  Tumor volume, Day 1: 89.33 ± 14.35** mm^3
[1]; Day 1
  T/C % (relative tumor proliferation rate): 63.00%
[1]; Day 2, G10-G16 groups, single IP 400 mg/kg
  Day 2 (TGI %): 51.72%
[1]; [6]
  Day 2 (RTV): 1.27 ± 0.16
  Tumor volume, Day 2: 108.22 ± 18.22** mm^3
[1]; Day 2
  T/C % (relative tumor proliferation rate): 61.29%
[1]; Day 4, G10-G16 groups, single IP 400 mg/kg
  Day 4 (TGI %): 48.03%
[1]; [7]
  Day 4 (RTV): 1.83 ± 0.20
  Tumor volume, Day 4: 154.33 ± 27.49** mm^3
[1]; Day 4
  T/C % (relative tumor proliferation rate): 66.28%
[1]; Day 7, G10-G16 groups, single IP 400 mg/kg
  Day 7 (TGI %): 46.09%
[1]; [8]
  Day 7 (RTV): 2.82 ± 0.25
  Tumor volume, Day 7: 233.13 ± 37.06** mm^3
[1]; Day 7
  T/C % (relative tumor proliferation rate): 69.09%
[1]; Day 9, G10-G16 groups, single IP 400 mg/kg
  Day 9 (TGI %): 33.35%
[1]; [9]
  Day 9 (RTV): 4.84 ± 0.55
  Tumor volume, Day 9: 393.47 ± 68.53 mm^3
[1]; Day 9
  T/C % (relative tumor proliferation rate): 86.30%
[1]; Day 11, G10-G16 groups, single IP 400 mg/kg
  Day 11 (TGI %): 38.55%
[1]; [10]
  Day 11 (RTV): 7.60 ± 0.85
  Tumor volume, Day 11: 599.83 ± 84* mm^3
[1]; Day 11
  T/C % (relative tumor proliferation rate): 82.36%
[1]; Day 14, G10-G16 groups, single IP 400 mg/kg
  Day 14 (TGI %): 30.82%
[1]; [11]
  Day 14 (RTV): 13.37 ± 2.23
  Tumor volume, Day 14: 996.32 ± 91.77* mm^3
[1]; Day 14
  T/C % (relative tumor proliferation rate): 96.62%
[1]; Day 16, G10-G16 groups, single IP 400 mg/kg
  Day 16 (TGI %): 24.07%
[1]; [12]
  Day 16 (RTV): 18.63 ± 3.27
  Tumor volume, Day 16: 1375.20 ± 109.23* mm^3
[1]; Day 16
  T/C % (relative tumor proliferation rate): 107.93%
[1]; Day 18, G10-G16 groups, single IP 400 mg/kg
  Day 18 (TGI %): 18.11%
[1]; [13]
  Day 18 (RTV): 22.45 ± 4.24
  Tumor volume, Day 18: 1636.39 ± 114.98 mm^3
[1]; Day 18
  T/C % (relative tumor proliferation rate): 117.59%
[1]; Day 21, G10-G16 groups, single IP 400 mg/kg
  Day 21 (TGI %): 14.51%
[1]; [14]
  Day 21 (RTV): 29.09 ± 6.00
  Tumor volume, Day 21: 2090.18 ± 124.45 mm^3
[1]; Day 21
  T/C % (relative tumor proliferation rate): 124.28%
[1]; Day 23, G10-G16 groups, single IP 400 mg/kg
  Day 23 (TGI %): 10.21%
[1]; [15]
  Day 23 (RTV): 29.56 ± 5.99
  Tumor volume, Day 23: 2120.63 ± 111.71 mm^3
[1]; Day 23
  T/C % (relative tumor proliferation rate): 149.49%
[1]; Day 25, G10-G16 groups, single IP 400 mg/kg
  Day 25 (TGI %): 11.18%
[1]; [16]
  Day 25 (RTV): 31.95 ± 6.61
  Tumor volume, Day 25: 2293.73 ± 132.31 mm^3
[1]; Day 25
  T/C % (relative tumor proliferation rate): 147.80%
[1]; Day 28, G10-G16 groups, single IP 400 mg/kg
  Day 28 (TGI %): 10.61%
[1]; [17]
  Day 28 (RTV): 35.86 ± 7.35
  Tumor volume, Day 28: 2404.00 ± 127.93 mm^3
[1]; Day 28
  T/C % (relative tumor proliferation rate): 169.72%
[1]; Day 30, G10-G16 groups, single IP 400 mg/kg
  Day 30 (TGI %): 10.17%
[1]; [18]
  Day 30 (RTV): 40.27 ± 10.35
  Tumor volume, Day 30: 2520.69 ± 108.41 mm^3
[1]; Day 30
  T/C % (relative tumor proliferation rate): 162.31%
[2]; [3]
  Weight change rate, Day 0: 0.00%
[2]; [4]
  Weight of mice, Day 0: 19.90 ± 0.17 g
[2]; [5]
  Weight change rate, Day 1: −1.76 ± 0.49%
  Weight of mice, Day 1: 19.55 ± 0.21 g
[2]; [6]
  Weight change rate, Day 2: −0.85 ± 0.43%
  Weight of mice, Day 2: 19.73 ± 0.25 g
[2]; [7]
  Weight change rate, Day 4: 1.94 ± 0.91 %
  Weight of mice, Day 4: 20.28 ± 0.19 g
[2]; [8]
  Weight change rate, Day 7: 0.61 ± 0.70 %
  Weight of mice, Day 7: 20.02 ± 0.09 g
[2]; [9]
  Weight change rate, Day 9: 3.04 ± 1.24 %
  Weight of mice, Day 9: 20.50 ± 0.24 g
[2]; [10]
  Weight change rate, Day 11: 2.77 ± 1.51%
  Weight of mice, Day 11: 20.45 ± 0.32 g
[2]; [11]
  Weight change rate, Day 14: −1.53 ± 2.52%
  Weight of mice, Day 14: 19.60 ± 0.57 g
[2]; [12]
  Weight change rate, Day 16: −2.19 ± 3.22%
  Weight of mice, Day 16: 19.47 ± 0.68 g
[2]; [13]
  Weight change rate, Day 18: −1.80 ± 3.13%
  Weight of mice, Day 18: 19.55 ± 0.70 g
[2]; [14]
  Weight change rate, Day 21: −2.23 ± 3.14%
  Weight of mice, Day 21: 19.47 ± 0.72 g
[2]; Day 22, single IP dose (mg/kg)
  Day 22 Mortality: 0%
[2]; [15]
  Weight change rate, Day 23: −2.41 ± 3.42%
  Weight of mice, Day 23: 19.43 ± 0.78 g
[2]; [16]
  Weight change rate, Day 25: −1.80 ± 3.06%
  Weight of mice, Day 25: 19.55 ± 0.69 g
[2]; [17]
  Weight change rate, Day 28: −1.77 ± 2.66%
  Weight of mice, Day 28: 19.54 ± 0.67 g
[2]; [18]
  Weight change rate, Day 30: −1.95 ± 3.04%
  Weight of mice, Day 30: 19.55 ± 0.79 g
[2]; after single IP dose, compared with model control group
  clinical symptoms: no significant differences in clinical symptoms
